The source of these data is patent publication US11572590B2, “Methods for evaluating tumor cell spheroids using 3D microfluidic cell culture device” (Dana-Farber Cancer Institute, Inc., priority 2017, dated 2023).

Holding throughout (test): SelectScreen Kinase Profiling, single point inhibition and IC50 for off-target kinases
Holding throughout (format): biochemical

The target of experiment [1] is off-target kinases (Homo sapiens, UniProt Q9UM73, L1196M). Conditions: ALKL1196M (mutant), LanthaScreen Binding. (Time-resolved FRET reads energy transfer from a long-lived donor to a nearby acceptor.)
Experiment [2] addresses off-target kinases (Homo sapiens, UniProt Q04912). The note with it: MST1R (RON), ZLYTE, ATP Km app.
Experiment [3] concerns the target T1, off-target kinases (Homo sapiens, UniProt Q12866, A708S).
T1 sequence (Q12866 21-999 A708S): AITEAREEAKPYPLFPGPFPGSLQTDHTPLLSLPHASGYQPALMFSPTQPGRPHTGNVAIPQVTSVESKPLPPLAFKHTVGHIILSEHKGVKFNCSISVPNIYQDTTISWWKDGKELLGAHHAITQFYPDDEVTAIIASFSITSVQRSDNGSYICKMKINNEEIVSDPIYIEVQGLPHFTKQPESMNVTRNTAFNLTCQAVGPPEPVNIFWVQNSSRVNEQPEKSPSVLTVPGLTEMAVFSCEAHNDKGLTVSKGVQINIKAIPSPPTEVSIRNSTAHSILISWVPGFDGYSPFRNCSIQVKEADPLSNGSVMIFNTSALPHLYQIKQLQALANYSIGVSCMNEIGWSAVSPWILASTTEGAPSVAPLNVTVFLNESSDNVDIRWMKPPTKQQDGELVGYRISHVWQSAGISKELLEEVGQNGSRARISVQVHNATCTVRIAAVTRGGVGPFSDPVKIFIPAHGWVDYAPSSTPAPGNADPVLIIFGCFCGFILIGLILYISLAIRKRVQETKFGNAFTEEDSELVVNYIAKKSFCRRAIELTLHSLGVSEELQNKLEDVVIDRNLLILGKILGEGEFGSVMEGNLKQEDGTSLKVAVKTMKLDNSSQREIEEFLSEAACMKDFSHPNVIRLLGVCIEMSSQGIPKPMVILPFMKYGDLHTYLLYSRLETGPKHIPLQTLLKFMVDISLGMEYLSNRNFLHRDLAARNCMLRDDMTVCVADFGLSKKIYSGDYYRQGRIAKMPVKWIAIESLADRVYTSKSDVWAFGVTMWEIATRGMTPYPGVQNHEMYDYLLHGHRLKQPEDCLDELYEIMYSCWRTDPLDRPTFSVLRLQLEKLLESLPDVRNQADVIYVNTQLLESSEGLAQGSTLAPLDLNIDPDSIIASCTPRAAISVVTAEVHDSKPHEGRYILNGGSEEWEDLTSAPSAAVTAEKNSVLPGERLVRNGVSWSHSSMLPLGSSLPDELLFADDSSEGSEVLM
The note with it: MERTK (cMER) A708S, mutant y, LanthaScreen Binding.

For experiment [4], the target named is T2, off-target kinases (Homo sapiens, UniProt Q9NRA0).
T2 sequence (Q9NRA0 1-654): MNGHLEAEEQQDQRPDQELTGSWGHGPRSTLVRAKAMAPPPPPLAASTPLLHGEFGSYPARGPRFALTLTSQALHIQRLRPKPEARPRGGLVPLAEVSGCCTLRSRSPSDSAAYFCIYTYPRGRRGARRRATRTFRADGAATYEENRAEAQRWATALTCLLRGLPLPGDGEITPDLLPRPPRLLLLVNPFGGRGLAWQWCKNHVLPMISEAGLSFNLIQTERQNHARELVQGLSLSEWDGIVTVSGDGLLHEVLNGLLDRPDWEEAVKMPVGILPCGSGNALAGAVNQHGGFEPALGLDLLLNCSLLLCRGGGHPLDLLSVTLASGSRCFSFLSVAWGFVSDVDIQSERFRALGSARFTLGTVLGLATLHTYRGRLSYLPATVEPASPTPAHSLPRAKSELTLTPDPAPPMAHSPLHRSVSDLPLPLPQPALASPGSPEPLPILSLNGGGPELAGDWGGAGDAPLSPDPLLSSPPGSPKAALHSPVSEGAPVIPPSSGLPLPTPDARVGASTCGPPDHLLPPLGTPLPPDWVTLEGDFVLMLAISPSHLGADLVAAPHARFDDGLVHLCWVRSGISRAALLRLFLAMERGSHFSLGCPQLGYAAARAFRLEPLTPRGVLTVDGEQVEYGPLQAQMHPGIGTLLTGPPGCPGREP
The note with it: SPHK2; Cmpd1 1000 μM; ATP 10; Adapta.

Read-outs that look alike come from different tables or passages of the source.

Chain of off-target kinases (Homo sapiens, UniProt Q9UM73, L1196M) (Q9UM73 19-1620 L1196M): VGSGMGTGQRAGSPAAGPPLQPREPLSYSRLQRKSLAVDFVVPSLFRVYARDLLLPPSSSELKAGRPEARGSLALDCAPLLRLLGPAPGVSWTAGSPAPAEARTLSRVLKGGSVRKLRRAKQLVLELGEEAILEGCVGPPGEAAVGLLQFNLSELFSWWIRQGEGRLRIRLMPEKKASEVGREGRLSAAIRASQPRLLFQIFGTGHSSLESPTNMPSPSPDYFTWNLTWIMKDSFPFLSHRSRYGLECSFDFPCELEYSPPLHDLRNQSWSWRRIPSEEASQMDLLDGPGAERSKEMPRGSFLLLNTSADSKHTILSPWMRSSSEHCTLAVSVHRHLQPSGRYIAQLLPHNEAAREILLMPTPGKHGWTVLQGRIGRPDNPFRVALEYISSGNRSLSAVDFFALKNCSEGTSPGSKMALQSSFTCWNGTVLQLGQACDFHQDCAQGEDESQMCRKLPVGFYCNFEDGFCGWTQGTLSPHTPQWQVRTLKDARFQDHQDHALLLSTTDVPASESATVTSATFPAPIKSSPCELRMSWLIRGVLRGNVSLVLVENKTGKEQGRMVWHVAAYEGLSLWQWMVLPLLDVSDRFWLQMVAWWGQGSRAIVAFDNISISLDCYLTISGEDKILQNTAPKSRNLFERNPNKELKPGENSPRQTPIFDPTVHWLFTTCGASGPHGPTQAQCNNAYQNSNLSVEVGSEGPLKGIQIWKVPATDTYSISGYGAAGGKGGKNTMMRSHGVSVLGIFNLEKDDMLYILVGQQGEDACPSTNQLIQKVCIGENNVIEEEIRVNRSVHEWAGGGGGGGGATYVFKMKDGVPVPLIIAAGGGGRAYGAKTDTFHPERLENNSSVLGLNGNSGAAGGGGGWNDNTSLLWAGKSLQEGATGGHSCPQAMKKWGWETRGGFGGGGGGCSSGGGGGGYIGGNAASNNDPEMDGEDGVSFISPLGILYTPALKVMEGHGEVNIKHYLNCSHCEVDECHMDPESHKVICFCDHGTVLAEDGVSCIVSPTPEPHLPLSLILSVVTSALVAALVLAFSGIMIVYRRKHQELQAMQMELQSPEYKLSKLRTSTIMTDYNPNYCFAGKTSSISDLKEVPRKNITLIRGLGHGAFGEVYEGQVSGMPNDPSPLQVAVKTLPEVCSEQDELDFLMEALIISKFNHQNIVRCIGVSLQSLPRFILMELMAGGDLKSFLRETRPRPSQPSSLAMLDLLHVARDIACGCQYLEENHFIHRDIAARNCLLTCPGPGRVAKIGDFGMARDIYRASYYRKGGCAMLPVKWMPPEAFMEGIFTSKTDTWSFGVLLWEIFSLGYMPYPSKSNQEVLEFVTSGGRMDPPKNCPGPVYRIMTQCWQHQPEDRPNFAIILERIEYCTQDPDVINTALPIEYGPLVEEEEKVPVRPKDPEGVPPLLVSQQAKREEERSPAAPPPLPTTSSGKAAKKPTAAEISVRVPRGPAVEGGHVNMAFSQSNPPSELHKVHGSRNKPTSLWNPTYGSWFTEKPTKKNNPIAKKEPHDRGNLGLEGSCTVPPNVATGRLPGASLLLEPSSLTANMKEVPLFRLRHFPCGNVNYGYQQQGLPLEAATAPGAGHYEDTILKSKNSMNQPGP
Chain of off-target kinases (Homo sapiens, UniProt Q04912) (Q04912 25-1400): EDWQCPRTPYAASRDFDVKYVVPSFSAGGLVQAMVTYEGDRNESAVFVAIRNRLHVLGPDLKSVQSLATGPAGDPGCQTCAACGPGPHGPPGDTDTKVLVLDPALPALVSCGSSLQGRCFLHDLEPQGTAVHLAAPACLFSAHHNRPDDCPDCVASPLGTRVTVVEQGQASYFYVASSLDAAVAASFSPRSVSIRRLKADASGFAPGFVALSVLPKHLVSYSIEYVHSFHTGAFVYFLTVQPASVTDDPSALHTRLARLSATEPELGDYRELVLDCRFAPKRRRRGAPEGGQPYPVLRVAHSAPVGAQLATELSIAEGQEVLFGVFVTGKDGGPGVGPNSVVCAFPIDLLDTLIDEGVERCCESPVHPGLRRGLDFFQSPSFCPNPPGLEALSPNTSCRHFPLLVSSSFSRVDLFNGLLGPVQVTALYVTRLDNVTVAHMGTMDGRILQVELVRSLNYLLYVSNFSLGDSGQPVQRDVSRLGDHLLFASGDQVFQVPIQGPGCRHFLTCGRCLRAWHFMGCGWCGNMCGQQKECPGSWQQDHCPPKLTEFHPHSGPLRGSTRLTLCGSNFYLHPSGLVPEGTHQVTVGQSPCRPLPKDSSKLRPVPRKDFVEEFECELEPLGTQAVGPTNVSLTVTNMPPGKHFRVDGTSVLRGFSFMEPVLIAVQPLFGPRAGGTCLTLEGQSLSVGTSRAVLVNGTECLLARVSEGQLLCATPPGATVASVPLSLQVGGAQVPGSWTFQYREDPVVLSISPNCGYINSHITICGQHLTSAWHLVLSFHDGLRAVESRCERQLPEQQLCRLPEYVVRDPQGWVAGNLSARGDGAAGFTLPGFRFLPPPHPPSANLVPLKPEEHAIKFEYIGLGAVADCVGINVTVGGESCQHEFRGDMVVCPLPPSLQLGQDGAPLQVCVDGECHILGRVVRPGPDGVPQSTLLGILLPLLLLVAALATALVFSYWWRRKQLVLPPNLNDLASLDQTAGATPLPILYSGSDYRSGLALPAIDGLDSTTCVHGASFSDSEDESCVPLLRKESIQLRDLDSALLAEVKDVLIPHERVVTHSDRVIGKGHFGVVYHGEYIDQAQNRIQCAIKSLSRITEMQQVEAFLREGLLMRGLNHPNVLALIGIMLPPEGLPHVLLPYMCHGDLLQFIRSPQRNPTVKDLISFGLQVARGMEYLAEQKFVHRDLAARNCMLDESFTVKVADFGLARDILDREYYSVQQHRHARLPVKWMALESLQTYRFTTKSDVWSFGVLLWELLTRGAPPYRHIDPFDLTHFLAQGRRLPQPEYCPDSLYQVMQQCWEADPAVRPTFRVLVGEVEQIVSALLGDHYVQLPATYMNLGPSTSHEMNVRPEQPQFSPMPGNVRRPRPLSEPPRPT

Broadly, the inhibition is the drop in the measured response relative to a control, in per cent. As to `N#Cc1cc(-c2ncnc(Nc3ccc(N4CCN(C5COC5)CC4)cc3)n2)ccc1OC1CCOCC1` [Compound 1, 5-(4-((4-(4-(oxetan-3-yl)piperazin-1-yl)phenyl)amino)-1,3,5-triazin-2-yl)-2-((tetrahydro-2H-pyran-4-yl)oxy)benzonitrile], the inhibition at off-target kinases [1] (read-out: % Inhibition 1) was 1%; on off-target kinases [1] (read-out: % Inhibition 2), 9%; on off-target kinases [1] (read-out: % Inhibition Avg) it was 5%; on off-target kinases [2] (read-out: % Inhibition 1), 38%; on off-target kinases [2] (read-out: % Inhibition 2), 38%; on off-target kinases [2] (read-out: % Inhibition Avg) it was 38%. Also, the inhibition on off-target kinases [3] (read-out: % Inhibition 1) stood at 24%; on off-target kinases [3] (read-out: % Inhibition 2), 27%; at off-target kinases [3] (read-out: % Inhibition Avg), 26%. Further, the “% Inhibition 1” value at off-target kinases [4] is reported as −16%. For the same molecule, the “% Inhibition 2” value on off-target kinases [4] is listed as −2%. Besides, at off-target kinases [4], the “% Inhibition Avg” value was −9%.
